According to patent publication US7553821B2, “Methods for selectively modulating survivin apoptosis pathways” (Yale University, priority 2000, dated 2009):

What was measured:
caspase-9 [1] = test: Co-immunoprecipitation of survivin and caspase-9 from HeLa cells; type: binding; conditions: synchronized HeLa cells entering mitosis 12 h after thymidine release
Method: (§1) Asynchronously growing HeLa cells were transfected with HA-wild type survivin (WT) or HA-survivin(T34A) (T34A), detergent-solubilized after 24 h and immunoprecipitated with an antibody to HA followed by Western blotting with an antibody to caspase-9. Arrow, position of 46 kDa proform caspase-9.
(§2) HeLa cells were transfected with the indicated HA-constructs, synchronized to the G1/S boundary by a 16-h treatment with thymidine and released. Aliquots of the various cultures were immunoprecipitated at the indicated time intervals with an antibody to HA, and immunoblotted with antibodies to caspase-9 or HA. P, pellet; S, supernatant. For all panels, molecular weight markers are indicated on the left.
(§3) Transfection experiments. For transient transfection, HeLa cells in C-6 tissue culture plates (Costar, Cambridge, Mass.) at ˜60-70% confluency, were incubated in 1 ml of serum-free OptiMEM medium (Life Technologies, Gaithersburg, Md.) for 20 min, and transfected with 2.5 μg of the various plasmid cDNAs plus 9 μl Lipofectamine (Life Technologies). After a 5 h incubation at 37° C., the mixture was aspirated and substituted with complete growth medium for 48-72 h. […] Gated GFP-expressing cells were analyzed for DNA content by flow cytometry on a FACSort (Becton Dickinson, San Jose, Calif.) using a Cell Quest software. […]

caspase-9 [2] = molecular target: T1, caspase-9 (Homo sapiens, UniProt P55211); test: as above; type: binding; conditions: viable HeLa cells 24 h after transfection
T1 construct: immunoprecipitated with an antibody to HA followed by Western blotting with an antibody to caspase-9; endogenous in cells; host or cells: HeLa
T1 sequence (P55211 1-416): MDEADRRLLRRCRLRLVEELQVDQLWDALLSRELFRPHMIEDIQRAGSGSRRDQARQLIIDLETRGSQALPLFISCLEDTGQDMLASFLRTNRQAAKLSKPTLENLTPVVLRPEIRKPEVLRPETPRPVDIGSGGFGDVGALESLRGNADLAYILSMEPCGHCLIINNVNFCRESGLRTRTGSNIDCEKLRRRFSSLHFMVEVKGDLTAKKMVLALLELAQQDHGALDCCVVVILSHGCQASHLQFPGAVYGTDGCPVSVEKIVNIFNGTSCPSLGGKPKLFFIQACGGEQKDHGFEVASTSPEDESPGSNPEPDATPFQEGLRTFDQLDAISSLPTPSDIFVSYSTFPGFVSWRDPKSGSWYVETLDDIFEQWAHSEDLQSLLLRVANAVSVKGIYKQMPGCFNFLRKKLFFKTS
Method: as §1, §2, §3

survivin(T34A): dominant-negative, non-phosphorylatable survivin mutant with Thr34→Ala substitution, expressed from transfected cDNA (also HA- or GFP-tagged)
caspase-9 associated with HA immunoprecipitates by Western blotting (caspase-9 [1]): did not contain associated proform or active caspase-9 bands
caspase-9 associated with HA immunoprecipitates by Western blotting (caspase-9 [2]): presence of associated ˜46 kDa proform caspase-9
